Assay results published in PubChem BioAssay (NCI).
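Protocol summary: plate cells (96-well), add compound at 5 concentrations, incubate 48 h, interpolate endpoints linearly. TGI: concentration producing complete growth inhibition.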

Key:
Test in all cases: inhibition of tumour cell growth, NCI panel, 48 h
786-0 renal = system: 786-0 renal
A498 renal = system: A498 renal
A549 NSCLC = system: A549 NSCLC
ACHN renal = system: ACHN renal
BT-549 breast = system: BT-549 breast
CAKI-1 renal = system: CAKI-1 renal
COLO 205 colon = system: COLO 205 colon
DU-145 prostate = system: DU-145 prostate
HCC-2998 colon = system: HCC-2998 colon
HCT-116 colon = system: HCT-116 colon
HCT-15 colon = system: HCT-15 colon
HOP-62 NSCLC = system: HOP-62 NSCLC
HOP-92 NSCLC = system: HOP-92 NSCLC
HS 578T breast = system: HS 578T breast
HT29 colon = system: HT29 colon
IGROV1 ovarian = system: IGROV1 ovarian
K-562 leukemia = system: K-562 leukemia
KM12 colon = system: KM12 colon
LOX IMVI melanoma = system: LOX IMVI melanoma
M14 melanoma = system: M14 melanoma
MALME-3M melanoma = system: MALME-3M melanoma
MDA-MB-231 breast = system: MDA-MB-231 breast
MDA-MB-435 = system: MDA-MB-435
MDA-N = system: MDA-N
MOLT-4 leukemia = system: MOLT-4 leukemia
NCI-H226 lung = system: NCI-H226 lung
NCI-H23 lung = system: NCI-H23 lung
NCI-H460 lung = system: NCI-H460 lung
NCI-H522 lung = system: NCI-H522 lung
NCI/ADR-RES ovarian = system: NCI/ADR-RES ovarian
OVCAR-3 ovarian = system: OVCAR-3 ovarian
OVCAR-4 ovarian = system: OVCAR-4 ovarian
OVCAR-5 ovarian = system: OVCAR-5 ovarian
OVCAR-8 ovarian = system: OVCAR-8 ovarian
PC-3 prostate = system: PC-3 prostate
RPMI-8226 leukemia = system: RPMI-8226 leukemia
RXF 393 renal = system: RXF 393 renal
SF-268 CNS = system: SF-268 CNS
SF-295 CNS = system: SF-295 CNS
SK-MEL-2 melanoma = system: SK-MEL-2 melanoma
SK-MEL-28 melanoma = system: SK-MEL-28 melanoma
SK-MEL-5 melanoma = system: SK-MEL-5 melanoma
SK-OV-3 ovarian = system: SK-OV-3 ovarian
SN12C renal = system: SN12C renal
SNB-19 CNS = system: SNB-19 CNS
SNB-75 CNS = system: SNB-75 CNS
SR leukemia = system: SR leukemia
SW-620 colon = system: SW-620 colon
T-47D breast = system: T-47D breast
TK-10 renal = system: TK-10 renal
U251 CNS = system: U251 CNS
UACC-257 melanoma = system: UACC-257 melanoma
UACC-62 melanoma = system: UACC-62 melanoma
UO-31 renal = system: UO-31 renal
CCRF-CEM leukemia = system: CCRF-CEM leukemia
EKVX NSCLC = system: EKVX NSCLC
HL-60(TB) leukemia = system: HL-60(TB) leukemia
MCF7 breast = system: MCF7 breast

CCOC(=O)c1sc2nc(SC)nc(N3CCCCC3)c2c1N
TGI (786-0 renal): > 100 µM
TGI (A498 renal): > 100 µM
TGI (A549 NSCLC): > 100 µM
TGI (ACHN renal): > 100 µM
TGI (BT-549 breast): > 100 µM
TGI (CAKI-1 renal): > 100 µM
TGI (COLO 205 colon): > 100 µM
TGI (DU-145 prostate): > 100 µM
TGI (HCC-2998 colon): > 100 µM
TGI (HCT-116 colon): > 100 µM
TGI (HCT-15 colon): > 100 µM
TGI (HOP-62 NSCLC): > 100 µM
TGI (HOP-92 NSCLC): > 100 µM
TGI (HS 578T breast): > 100 µM
TGI (HT29 colon): > 100 µM
TGI (IGROV1 ovarian): > 100 µM
TGI (K-562 leukemia): > 100 µM
TGI (KM12 colon): > 100 µM
TGI (LOX IMVI melanoma): > 100 µM
TGI (M14 melanoma): > 100 µM
TGI (MALME-3M melanoma): > 100 µM
TGI (MDA-MB-231 breast): > 100 µM
TGI (MDA-MB-435): > 100 µM
TGI (MDA-N): > 100 µM
TGI (MOLT-4 leukemia): > 100 µM
TGI (NCI-H226 lung): > 100 µM
TGI (NCI-H23 lung): > 100 µM
TGI (NCI-H460 lung): > 100 µM
TGI (NCI-H522 lung): > 100 µM
TGI (NCI/ADR-RES ovarian): > 100 µM
TGI (OVCAR-3 ovarian): > 100 µM
TGI (OVCAR-4 ovarian): > 100 µM
TGI (OVCAR-5 ovarian): > 100 µM
TGI (OVCAR-8 ovarian): > 100 µM
TGI (PC-3 prostate): > 100 µM
TGI (RPMI-8226 leukemia): > 100 µM
TGI (RXF 393 renal): > 100 µM
TGI (SF-268 CNS): > 100 µM
TGI (SF-295 CNS): > 100 µM
TGI (SK-MEL-2 melanoma): > 100 µM
TGI (SK-MEL-28 melanoma): > 100 µM
TGI (SK-MEL-5 melanoma): > 100 µM
TGI (SK-OV-3 ovarian): > 100 µM
TGI (SN12C renal): > 100 µM
TGI (SNB-19 CNS): > 100 µM
TGI (SNB-75 CNS): > 100 µM
TGI (SR leukemia): > 100 µM
TGI (SW-620 colon): > 100 µM
TGI (T-47D breast): > 100 µM
TGI (TK-10 renal): > 100 µM
TGI (U251 CNS): > 100 µM
TGI (UACC-257 melanoma): > 100 µM
TGI (UACC-62 melanoma): > 100 µM
TGI (UO-31 renal): > 100 µM

C=C1C[C@@H](O)[C@@H](Br)C(C)(C)[C@@]12C=CC(O)(CBr)CC2 (stereo partly specified)
TGI (786-0 renal): > 100 µM
TGI (A549 NSCLC): > 100 µM
TGI (ACHN renal): > 100 µM
TGI (BT-549 breast): 83.7 µM
TGI (CAKI-1 renal): > 100 µM
TGI (CCRF-CEM leukemia): 64.2 µM
TGI (DU-145 prostate): > 100 µM
TGI (EKVX NSCLC): 79.2 µM
TGI (HCT-116 colon): > 100 µM
TGI (HCT-15 colon): > 100 µM
TGI (HL-60(TB) leukemia): > 100 µM
TGI (HOP-62 NSCLC): > 100 µM
TGI (HOP-92 NSCLC): 61 µM
TGI (HS 578T breast): > 100 µM
TGI (HT29 colon): > 100 µM
TGI (IGROV1 ovarian): > 100 µM
TGI (K-562 leukemia): > 100 µM
TGI (KM12 colon): 15.1 µM
TGI (LOX IMVI melanoma): > 100 µM
TGI (M14 melanoma): > 100 µM
TGI (MALME-3M melanoma): > 100 µM
TGI (MCF7 breast): > 100 µM
TGI (MDA-MB-231 breast): 93.5 µM
TGI (MDA-MB-435): > 100 µM
TGI (MDA-N): > 100 µM
TGI (MOLT-4 leukemia): 76.2 µM
TGI (NCI-H226 lung): > 100 µM
TGI (NCI-H23 lung): > 100 µM
TGI (NCI-H460 lung): > 100 µM
TGI (NCI-H522 lung): > 100 µM
TGI (OVCAR-3 ovarian): > 100 µM
TGI (OVCAR-4 ovarian): > 100 µM
TGI (OVCAR-5 ovarian): > 100 µM
TGI (OVCAR-8 ovarian): > 100 µM
TGI (PC-3 prostate): 9.72 µM
TGI (RPMI-8226 leukemia): 70.7 µM
TGI (RXF 393 renal): > 100 µM
TGI (SF-268 CNS): > 100 µM
TGI (SF-295 CNS): > 100 µM
TGI (SK-MEL-2 melanoma): > 100 µM
TGI (SK-MEL-28 melanoma): > 100 µM
TGI (SK-MEL-5 melanoma): > 100 µM
TGI (SN12C renal): > 100 µM
TGI (SNB-19 CNS): > 100 µM
TGI (SR leukemia): 77.6 µM
TGI (SW-620 colon): > 100 µM
TGI (T-47D breast): > 100 µM
TGI (TK-10 renal): > 100 µM
TGI (U251 CNS): > 100 µM
TGI (UACC-257 melanoma): > 100 µM
TGI (UACC-62 melanoma): > 100 µM
TGI (UO-31 renal): > 100 µM
